US7034036B2, “Inhibitors of ABC drug transporters at the blood-brain barrier” (Pain Therapeutics, Inc., priority 2000, dated 2006)
Entries after “also recorded” stand apart in the source; their conditions may differ.

Assays:
PGP1a [1] = biological target: PGP1a (Homo sapiens, UniProt P08183); assay: Biological activity of exemplary compounds (Activity 1 high affinity site, Activity 2 low affinity site); conditions: for Activity 2: high capacity, low affinity binding site; for Activity 1: low capacity, high affinity binding site
PGP1a [2] = assay: Vanadate-sensitive PGP ATPase activity in PGP membranes; type: biochemical; conditions: for Inhibition of the ATPase associated with PGP1a: semi-quantitative assay
Protocol: The test substances were incubated in the membranes and supplemented with MgATP, with and without sodium orthovanadate present. Orthovanadate inhibits PGP by trapping MgADP in the nucleotide binding site. Thus, the ATPase activity measured in the presence of orthovanadate represents non-PGP ATPase activity and was subtracted from the activity generated without orthovanadate to yield vanadate-sensitive ATPase activity.
ATPase assays were conducted in 96-well microtiter plates. A 0.06 ml reaction mixture containing 40 μg PGP membranes, test substance, and 4 mM MgATP, in buffer containing 50 mM Tris-MES, 2 mM EGTA, 50 mM KCl, 2 mM dithiothreitol, and 5 mM sodium azide, plus organic solvent was incubated at 37° C. for 20 minutes. […] Identical reaction mixtures containing 100 μM sodium orthovanadate were assayed in parallel. The reactions were stopped by the addition of 30 μl of 10% SDS+Antifoam A. The incubations were followed with addition of 200 μl of 35 mM Ammonium Molybdate in 15 mM Zinc Acetate:10% Ascorbic Acid (1:4) and incubated for an additional 20 minutes at 37° C. Additionally, 0.06 ml aliquots of potassium phosphate standards prepared in the buffer described above, were incubated in the plates containing the test and control substances, with SDS and detection reagent added. The liberation of inorganic phosphate was detected by its absorbance at 800 nm and quantitated by comparing the absorbance to a phosphate standard curve. The concentration dependence of the PGP was analyzed for evidence of saturation of PGP-ATPase activity, and apparent kinetic parameters were calculated by non-linear regression.

mice [3] = assay: Tolerance to oxycodone in mice, parallel experiments; type: in vivo
human PGP = human PGP (Homo sapiens, UniProt P08183); assay: Inhibition of PGP-mediated [3H]-digoxin transport in LLC-PK1 cell monolayers expressing human PGP cDNA (15B-J); conditions: for % Inhibition of Digoxin Transport: 5 μM [3H]-digoxin, 90 min
mice [4] = assay: Tail flick anti-nociception, naltrexone begun at day 6 in mice dosed daily with morphine (Groups A, B); type: in vivo; conditions: for Adaptation to repeated dosing (tail flick latency, words): Group 1, morphine 3 mg/kg daily alone
Protocol: 40 male mice were randomized into 5 groups of eight. All mice were administered single 3 mg/kg morphine daily (b.i.d.), beginning on Day 1.
In a second series of experiments, 40 female mice were randomized into 5 groups of eight. All mice were administered single 3 mg/kg morphine daily (b.i.d.), beginning on Day 1.
3 mg/kg of morphine was administered as a single bolus dose to each mouse on group 1 on a daily basis. Mice in Group 2 were also administered 3 mg/kg morphine daily.

mice [5] = assay: Tail flick anti-nociception, naltrexone given with morphine from day 1 (Groups C, D, combined analysis); type: in vivo; parameters: Enhancement of Latency (tail flick) / Enhancement of Latency by Naltrexone (tail flick): unit not given here; conditions: Group 1: morphine 3 mg/kg only
Protocol: In a third series of experiments, 40 male mice were randomized into 5 groups of eight. All mice were administered single 3 mg/kg morphine daily (b.i.d.), beginning on Day 1.
In a final series of experiments, 40 female mice were randomized into 5 groups of eight. All mice were administered single 3 mg/kg morphine daily (b.i.d.), beginning on Day 1.

[6] = male mice, 0.1 mg/kg oxycodone plus 1 ng/kg naltrexone, 1 ng/kg nalmefene or 1 pg/kg nor-BNI

Chain of human PGP (P08183 whole entry): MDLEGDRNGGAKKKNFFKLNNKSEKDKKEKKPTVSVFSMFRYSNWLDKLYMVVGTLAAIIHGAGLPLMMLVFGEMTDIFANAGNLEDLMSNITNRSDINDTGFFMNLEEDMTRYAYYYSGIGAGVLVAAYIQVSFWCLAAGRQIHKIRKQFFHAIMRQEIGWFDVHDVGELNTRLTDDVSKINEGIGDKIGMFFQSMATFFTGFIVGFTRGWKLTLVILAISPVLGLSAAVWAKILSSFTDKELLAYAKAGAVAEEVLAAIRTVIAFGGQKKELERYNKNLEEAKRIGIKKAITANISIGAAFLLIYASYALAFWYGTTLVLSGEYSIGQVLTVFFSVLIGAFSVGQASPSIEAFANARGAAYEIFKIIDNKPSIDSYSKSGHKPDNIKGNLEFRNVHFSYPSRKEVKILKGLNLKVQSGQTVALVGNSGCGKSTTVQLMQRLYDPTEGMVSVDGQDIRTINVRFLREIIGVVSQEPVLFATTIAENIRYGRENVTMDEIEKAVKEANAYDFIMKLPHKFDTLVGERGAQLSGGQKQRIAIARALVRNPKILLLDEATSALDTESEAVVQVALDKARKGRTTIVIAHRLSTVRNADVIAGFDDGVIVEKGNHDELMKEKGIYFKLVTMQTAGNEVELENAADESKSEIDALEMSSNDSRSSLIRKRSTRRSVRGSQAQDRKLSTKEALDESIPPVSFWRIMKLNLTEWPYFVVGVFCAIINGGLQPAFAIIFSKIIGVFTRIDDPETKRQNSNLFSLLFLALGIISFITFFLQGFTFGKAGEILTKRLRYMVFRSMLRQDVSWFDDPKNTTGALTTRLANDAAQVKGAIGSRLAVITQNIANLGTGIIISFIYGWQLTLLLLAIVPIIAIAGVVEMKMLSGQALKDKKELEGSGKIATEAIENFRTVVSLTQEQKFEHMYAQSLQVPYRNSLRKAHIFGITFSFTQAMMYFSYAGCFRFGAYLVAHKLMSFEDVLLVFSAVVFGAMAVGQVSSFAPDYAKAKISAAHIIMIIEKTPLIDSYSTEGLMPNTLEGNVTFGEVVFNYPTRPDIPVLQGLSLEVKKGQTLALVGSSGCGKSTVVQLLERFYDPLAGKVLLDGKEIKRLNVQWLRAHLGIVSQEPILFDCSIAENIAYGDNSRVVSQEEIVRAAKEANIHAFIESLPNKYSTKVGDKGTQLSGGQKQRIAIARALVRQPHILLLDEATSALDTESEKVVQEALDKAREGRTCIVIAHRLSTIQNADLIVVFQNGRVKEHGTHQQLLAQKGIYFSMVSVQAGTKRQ
Chain of PGP1a (Homo sapiens, UniProt P08183) (P08183 whole entry): as above

Oc1ccc2c3c1O[C@H]1[C@H](O)CC[C@@]4(O)[C@@H](C2)N(CC2CC2)CC[C@]314 [6-β-Naltrexol, 6-β-naltrexol]
Activity 2 (PGP1a [1]): 100 µM
Activity 1 (PGP1a [1]): 0.1 nM

C=C1CC[C@@]2(O)[C@H]3Cc4ccc(O)c5c4[C@@]2(CCN3CC2CC2)[C@H]1O5 [Nalmefene, nalmefene]
Vanadate-sensitive ATPase Activity (PGP1a [2]; 30 μM): 2.3 nmol/mg/min
Vanadate-sensitive ATPase Activity (PGP1a [2]; 100 μM): 3.2 nmol/mg/min
Inhibition of the ATPase associated with PGP1a (PGP1a [2]): shown to inhibit
Activity 2 (PGP1a [1]): 100 µM
Activity 1 (PGP1a [1]): 0.3 nM
Development of tolerance to oxycodone (mice [3]; [6]): did not develop tolerance
% Inhibition of Digoxin Transport (human PGP; 0.0001 μM test substance): 5.2%
% Inhibition of Digoxin Transport (human PGP; 0.0003 μM test substance): 7.2%
% Inhibition of Digoxin Transport (human PGP; 0.001 μM test substance): 2.8%
% Inhibition of Digoxin Transport (human PGP; 0.003 μM test substance): 5.1%
% Inhibition of Digoxin Transport (human PGP; 0.01 μM test substance): 3.9%
% Inhibition of Digoxin Transport (human PGP; 0.03 μM test substance): −7.2%
% Inhibition of Digoxin Transport (human PGP; 0.1 μM test substance): −0.3%
% Inhibition of Digoxin Transport (human PGP; 0.3 μM test substance): −5.6%
% Inhibition of Digoxin Transport (human PGP; 1 μM test substance): −2.6%
Inhibition of digoxin transport (human PGP; increasing concentration between 3 and 100 μM): increasingly inhibited

C=CCN1CC[C@]23c4c5ccc(O)c4O[C@H]2C(=O)CC[C@@]3(O)[C@H]1C5 [Naloxone, naloxone]
Vanadate-sensitive ATPase Activity (PGP1a [2]; 1 μM): 0.4 nmol/mg/min
Vanadate-sensitive ATPase Activity (PGP1a [2]; 3 μM): 1.7 nmol/mg/min
Vanadate-sensitive ATPase Activity (PGP1a [2]; 10 μM): 2 nmol/mg/min
Vanadate-sensitive ATPase Activity (PGP1a [2]; 30 μM): 1.9 nmol/mg/min
Vanadate-sensitive ATPase Activity (PGP1a [2]; 100 μM): 1.8 nmol/mg/min
Inhibition of the ATPase associated with PGP1a (PGP1a [2]): shown to inhibit; also recorded: only weakly inhibited
Activity 2 (PGP1a [1]): 30 µM
Activity 1 (PGP1a [1]): 1.0 nM
Ketoconazole Normalized % Inhibition of Digoxin Transport (human PGP; 0.0001 μM nominal, normalized to 25 μM ketoconazole): 6.2%
Ketoconazole Normalized % Inhibition of Digoxin Transport (human PGP; 0.0003 μM nominal, normalized to 25 μM ketoconazole): 8.4%
Ketoconazole Normalized % Inhibition of Digoxin Transport (human PGP; 0.001 μM nominal, normalized to 25 μM ketoconazole): 10%
Ketoconazole Normalized % Inhibition of Digoxin Transport (human PGP; 0.01 μM nominal, normalized to 25 μM ketoconazole): −4.5%
Ketoconazole Normalized % Inhibition of Digoxin Transport (human PGP; 0.03 μM nominal, normalized to 25 μM ketoconazole): 5.7%
Ketoconazole Normalized % Inhibition of Digoxin Transport (human PGP; 0.1 μM nominal, normalized to 25 μM ketoconazole): −2.7%
Ketoconazole Normalized % Inhibition of Digoxin Transport (human PGP; 1 μM nominal, normalized to 25 μM ketoconazole): 7.8%
Inhibition of digoxin transport (human PGP; at the 30 and 100 μM concentrations): exhibited inhibitory behavior
Inhibition of digoxin transport (human PGP; concentrations below 30 μM, not concentration-dependent): slightly inhibited
Ketoconazole Normalized % Inhibition of Digoxin Transport (human PGP; nominal 0.03 μM as printed in the fourth line (measured […])): 5.7%

CN1CC[C@]23c4c5ccc(O)c4O[C@H]2[C@@H](O)C=C[C@H]3[C@H]1C5 [morphine]
Tolerance (mice [4]; 3 mg/kg daily, by Day 5): showed distinct tolerance
Adaptation to repeated dosing (tail flick latency, words) (mice [4]; female mice, especially from day five onwards): show an adaptation to morphine
Adaptation to repeated dosing (tail flick latency, words) (mice [4]; male mice): showed adaptation
Enhancement of Latency (tail flick) (mice [5]; Table 15, combined analysis (title prints Female Mice), Day 1): 7.4
Enhancement of Latency (tail flick) (mice [5]; Table 15, combined analysis (title prints Female Mice), Day 3): 3.0
Enhancement of Latency (tail flick) (mice [5]; Table 15, combined analysis (title prints Female Mice), Day 5): −1.2
Enhancement of Latency (tail flick) (mice [5]; Table 15, combined analysis (title prints Female Mice), Day 8): −3.7
Enhancement of Latency (tail flick) (mice [5]; Table 15, combined analysis (title prints Female Mice), Day 10): −3.3
Enhancement of Latency (tail flick) (mice [5]; female mice, Day 1): 5.4
Enhancement of Latency (tail flick) (mice [5]; female mice, Day 3): −0.1
Enhancement of Latency (tail flick) (mice [5]; female mice, Day 5): −4.1
Enhancement of Latency (tail flick) (mice [5]; female mice, Day 7): −5.0
Enhancement of Latency (tail flick) (mice [5]; female mice, Day 10): −3.3
Enhancement of Latency (tail flick) (mice [5]; female mice, Day 11, single bolus 10 μg/kg naltrexone to every mouse): −5.2
Enhancement of Latency (tail flick) (mice [5]; male mice, Day 1): 9.3
Enhancement of Latency (tail flick) (mice [5]; male mice, Day 3): 6.2
Enhancement of Latency (tail flick) (mice [5]; male mice, Day 5): 1.6
Enhancement of Latency (tail flick) (mice [5]; male mice, Day 8): −2.3
Enhancement of Latency (tail flick) (mice [5]; male mice, Day 10): −3.3
Enhancement of Latency (tail flick) (mice [5]; male mice, Day 12, single bolus 10 μg/kg naltrexone to every mouse): −4.3

Oc1ccc2c3c1O[C@H]1c4[nH]c5c(c4C[C@@]4(O)[C@@H](C2)N(CC2CC2)CC[C@]314)C[C@@]1(O)[C@H]2Cc3ccc(O)c4c3[C@@]1(CCN2CC1CC1)[C@H]5O4 [nor-BNI, nor-binaltorphimine]
Development of tolerance to oxycodone (mice [3]; female mice, 1 or 5 mg/kg oxycodone with 1 pg/kg, 1 ng/kg or 1 μg/kg naltrexone or 1 pg/kg nor-BNI): None of the mice developed tolerance
Development of tolerance to oxycodone (mice [3]; [6]): did not develop tolerance
